Patent US8703751B2, “Androstenediol as an indicator for assessing estrogenicity” (The Regents of the University of California, priority 2009, dated 2014)
“Also recorded” adds a separate entry of the source.

Experiments:
[1] = biological target: T1, estrogen-alpha receptor (Homo sapiens, UniProt P03372); experiment: cell-based estrogen receptor bioassay (BG1 cells, luciferase reporter under four estrogen-response elements) for estrogenicity; settings: for inherent estrogenic bioactivity (estrogenicity): at physiological circulating concentrations, FIG. 5 dose-response curves
T1 construct: human ovarian carcinoma cells (BG1) that have been stably transfected with a luciferase reporter gene plasmid; endogenous in cells; host or cells: BG1 human ovarian carcinoma cells stably transfected with an ERE-luciferase reporter plasmid
Excerpt: The total estrogen receptor ligand load (ERLL) can be determined using any method known in the art. The ERLL provides an estimate of the combined biological potential of the estrogen-alpha receptor ligand load contained in the sample. […] Other cell lines can find use. […] The detectable signal of any reporter gene known in the art can be used, including without limitation luciferase and fluorescent proteins (e.g., green fluorescent protein, yellow fluorescent protein, blue fluorescent protein, red fluorescent protein, etc.). In the case where […] is used as the reporter gene, […] substrate is added to the culture and the luciferase activity induced by the standards and/or test sample are measured using a Luminometer.
This assay assesses the total estrogenic bioactivity contained in a serum sample. Thus and estimate of the combined biological potential of the estrogen-alpha receptor ligand load (ERLL) contained in the sample. Thus the bioactivity of a sample will be appropriately estimated. Briefly, human ovarian carcinoma cells (BG1) that have been stably transfected with a luciferase reporter gene plasmid under the regulation of four estrogen-response elements were used to measure total bioactive estrogens. BG1 cells were cultured in Alpha Minimum Essential Medium (Alpha-MEM) with 10% fetal bovine serum (FBS). When cells reached 80% confluence, cells were trypsinized (0.05% trypsin-EDTA) and well dispersed in phenol-red free Dulbecco's […] (DMEM) supplemented with 10% dextran charcoal treated FBS (DCC-FBS). Suspended cells (0.05 mL/well; density of 25,000 cells/0.05 mL) were added to 96-well tissue culture plates containing 0.15 mL/well of phenol-red free DMEM supplemented with 10% DCC-FBS. On each of the two subsequent days (Days 2 and 3), the media in each well was removed and replaced with 0.2 mL phenol-red free DMEM supplemented with 10% DCC-FBS. […] To compensate for any serum matrix effects, DCC-FBS was added to the E2 standard preparation at a proportion equal to that of the serum content of the sample preparation (5% v/v). Serum samples were diluted in DCC-FBS with a final serum content of 5% (v/v). Plates were then incubated for an additional 18 hours. Media was then removed and 0.1 mL cell lysis buffer added to each well and allowed to incubate for 20 minutes. Cell lysates (0.04 mL) were transferred to 96-well Microfluor II plates (Fisher Scientific, Santa Clara, Calif.). Luciferin substrate was injected into each well and the luciferase activity induced by the standards and/or test serum was measured by a Veritas Luminometer (Turner Biosystems, Sunnyvale, Calif., USA).
The third element for developing the concept was that of gaining additional insight into the innate properties of all of the adrenal steroids that were associated with the rise of DS during the menopausal transition. For these investigations newly developed in vitro bioassays were used to adjudicate the estrogenicity of all for adrenal steroids (i.e., T, A-dione, 5A-diol and DHEA).

[2] = cited from earlier work
[3] = transdermal administration; 60-65 year old women; cited from earlier work
[4] = local, intravaginal suppository; cited from earlier work
[5] = 25 mg oral dose for three months; from 0.32 ng/mL before (doubling); cited from earlier work
[6] = oral 50 mg/day for one year, women over 70 years old

T1 sequence (P03372 whole entry): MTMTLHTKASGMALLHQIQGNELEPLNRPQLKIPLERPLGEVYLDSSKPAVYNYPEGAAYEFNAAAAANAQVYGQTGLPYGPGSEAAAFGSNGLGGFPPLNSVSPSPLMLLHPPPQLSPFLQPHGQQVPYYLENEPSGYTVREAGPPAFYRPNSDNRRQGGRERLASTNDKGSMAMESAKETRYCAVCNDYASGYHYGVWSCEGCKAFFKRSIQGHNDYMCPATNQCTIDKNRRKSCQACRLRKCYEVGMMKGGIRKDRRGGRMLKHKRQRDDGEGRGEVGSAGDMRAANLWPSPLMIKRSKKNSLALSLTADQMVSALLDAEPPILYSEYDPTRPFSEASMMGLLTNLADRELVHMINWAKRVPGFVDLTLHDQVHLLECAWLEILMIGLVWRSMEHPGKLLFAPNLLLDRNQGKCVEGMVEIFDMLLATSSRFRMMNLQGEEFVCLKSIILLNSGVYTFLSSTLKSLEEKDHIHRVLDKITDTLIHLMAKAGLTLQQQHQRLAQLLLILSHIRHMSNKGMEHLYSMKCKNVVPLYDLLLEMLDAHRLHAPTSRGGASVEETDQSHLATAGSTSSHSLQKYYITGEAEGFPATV

## C[C@]12CCC(=O)C=C1CC[C@@H]1[C@@H]2CC[C@]2(C)C(=O)CC[C@@H]12 [A-dione, androstendione]
[1]
  inherent estrogenic bioactivity (estrogenicity): only 5A-diol and estradiol had substantial inherent estrogenic bioactivity

## C[C@]12CC[C@H](O)CC1=CC[C@@H]1[C@@H]2CC[C@]2(C)C(=O)CC[C@@H]12 [DHEA, dehydroepiandrosterone]
[2]; 50 mg daily oral, adults 55-85 years of age, in women but not men
  BMD and bone resorption: only modest effect
[2]; 50 mg/day oral, one year, men and women between 60 and 80 years of age
  muscle status: no positive effect
[2]; [6]
  bone turnover: modestly decrease
  libido: increase
  skin hydration: improve
[1]
  estrogenic or not (discussion statement): not estrogenic
  inherent estrogenic bioactivity (estrogenicity): only 5A-diol and estradiol had substantial inherent estrogenic bioactivity; also recorded: does not
[3]
  increase in circulating DS: five fold increase
  increase in circulating androstendiol glucuronides: less than a two and one-half fold increase
[4]
  age-related vaginal atrophy: highly efficient treatment
  change in circulating sex steroid concentrations: no significant change
[5]
  circulating concentration of A-diol after treatment: 0.66 ng/mL

## C[C@]12CC[C@H]3[C@@H](CCC4=CC(=O)CC[C@@]43C)[C@@H]1CC[C@@H]2O [T, testosterone]
[1]
  inherent estrogenic bioactivity (estrogenicity): only 5A-diol and estradiol had substantial inherent estrogenic bioactivity

## C[C@]12CC[C@H]3[C@@H](CC=C4C[C@@H](O)CC[C@@]43C)[C@@H]1CC[C@@H]2O [5A-diol, (3-beta,17-beta)-Androst-5-ene-3,17-diol]
[1]
  estrogenic or not (discussion statement): is estrogenic
  inherent estrogenic bioactivity (estrogenicity): substantial inherent estrogenic bioactivity
[1]; listed as androstenediol
  inherent estrogenic bioactivity (estrogenicity): significant “estrogenicity” at physiological levels
